Conditions: Sprague-Dawley, rat, in vivo, po

SMILES | Exposure Ratio AUC [%] | Exposure Ratio Cmax [%] | time to reach maximum plasma concentration after administration | fold increase in AUC0-6h compared to dextrorphan tartrate | fold increase in Cmax compared to dextrorphan tartrate [fold]
CC(=O)N[C@@H](Cc1ccccc1)C(=O)Oc1ccc2c(c1)[C@]13CCCC[C@@H]1[C@H](C2)N(C)CC3 [3-(N-Ac-L-Phe)-dextrorphan] | 44 | 18 |  |  | 
C[C@H](N)C(=O)N[C@@H](C)C(=O)Oc1ccc2c(c1)[C@]13CCCC[C@@H]1C(C2)N(C)CC3 [3-(L-Ala-L-Ala)-dextrorphan] | 147 | 217 |  |  | 
CN1CC[C@]23CCCC[C@H]2[C@H]1Cc1ccc(O)cc13 [Dextrorphan, (+)-17-methylmorphinan-3-ol] |  |  | approximately 30 minutes |  | 
CC(=O)N[C@H](CCC(=O)O)C(=O)Oc1ccc2c(c1)[C@]13CCCC[C@@H]1C(C2)N(C)CC3 [3-(N-Ac-D-Glu)-dextrorphan] | 30 | 10 | around 2 hours |  | 
CC(C)[C@H](NC(=O)[C@H](N)C(C)C)C(=O)Oc1ccc2c(c1)[C@]13CCCC[C@@H]1C(C2)N(C)CC3 [3-(D-Val-D-Val)-dextrorphan] |  |  |  | about 4.5 fold | ~2.7
C[C@@H](N)C(=O)N[C@H](C)C(=O)Oc1ccc2c(c1)[C@]13CCCC[C@@H]1C(C2)N(C)CC3 [3-(D-Ala-D-Ala)-dextrorphan] | 59 | 43 |  |  | 
CC(=O)N[C@H](C)C(=O)Oc1ccc2c(c1)[C@]13CCCC[C@@H]1C(C2)N(C)CC3 [3-(N-Ac-D-Ala)-dextrorphan] |  | 32 |  |  | 
CC(=O)N[C@@H](CCC(=O)O)C(=O)Oc1ccc2c(c1)[C@]13CCCC[C@@H]1C(C2)N(C)CC3 [3-(N-Ac-L-Glu)-dextrorphan] | 43 | 14 | around 2 hours |  | 
CC(C)[C@H](N)C(=O)N[C@H](C(=O)Oc1ccc2c(c1)[C@]13CCCC[C@@H]1C(C2)N(C)CC3)C(C)C [3-(L-Val-L-Val)-dextrorphan] | 85 | 128 |  |  | 
CC(=O)N[C@@H](C(=O)Oc1ccc2c(c1)[C@]13CCCC[C@@H]1C(C2)N(C)CC3)C(C)C [3-(N-Ac-D-Val)-dextrorphan] | 556 | 180 |  |  | 
CC(=O)N[C@@H](C)C(=O)Oc1ccc2c(c1)[C@]13CCCC[C@@H]1C(C2)N(C)CC3 [3-(N-Ac-L-Ala)-dextrorphan] | 40 | 35 |  |  | 
CC[C@@H](C)[C@@H](NC(C)=O)C(=O)Oc1ccc2c(c1)[C@]13CCCC[C@@H]1C(C2)N(C)CC3 [3-(N-Ac-D-Ile)-dextrorphan] | 880 | 672 |  |  | 
CC(=O)N[C@H](C(=O)Oc1ccc2c(c1)[C@]13CCCC[C@@H]1C(C2)N(C)CC3)C(C)C [3-(N-Ac-L-Val)-dextrorphan] | 37 |  |  |  | 
CC(=O)N[C@H](Cc1ccccc1)C(=O)Oc1ccc2c(c1)[C@]13CCCC[C@@H]1[C@H](C2)N(C)CC3 [3-(N-Ac-D-Phe)-dextrorphan] | 30 | 11 |  |  | 

Same assay, conditions: Sprague-Dawley, rat, in vivo, po, 6 mg/kg

SMILES | AUC0-6 h [ng·h/mL] | Cmax [ng/mL] | Tmax [h]
CC(=O)N[C@@H](Cc1ccccc1)C(=O)Oc1ccc2c(c1)[C@]13CCCC[C@@H]1[C@H](C2)N(C)CC3 [3-(N-Ac-L-Phe)-dextrorphan] | 27.7 | 8.0 | 2.8
C[C@H](N)C(=O)N[C@@H](C)C(=O)Oc1ccc2c(c1)[C@]13CCCC[C@@H]1C(C2)N(C)CC3 [3-(L-Ala-L-Ala)-dextrorphan] | 88.3 | 87.3 | 0.8
CC(=O)N[C@H](CCC(=O)O)C(=O)Oc1ccc2c(c1)[C@]13CCCC[C@@H]1C(C2)N(C)CC3 [3-(N-Ac-D-Glu)-dextrorphan] | 12.7 | 3.5 | 2.4
C[C@@H](N)C(=O)N[C@H](C)C(=O)Oc1ccc2c(c1)[C@]13CCCC[C@@H]1C(C2)N(C)CC3 [3-(D-Ala-D-Ala)-dextrorphan] | 24.7 | 9.6 | 2.1
CC(=O)N[C@H](C)C(=O)Oc1ccc2c(c1)[C@]13CCCC[C@@H]1C(C2)N(C)CC3 [3-(N-Ac-D-Ala)-dextrorphan] | 30.8 | 16.5 | 1.6
CC(=O)N[C@@H](CCC(=O)O)C(=O)Oc1ccc2c(c1)[C@]13CCCC[C@@H]1C(C2)N(C)CC3 [3-(N-Ac-L-Glu)-dextrorphan] | 18.4 | 4.8 | 1.8
CC(C)[C@H](N)C(=O)N[C@H](C(=O)Oc1ccc2c(c1)[C@]13CCCC[C@@H]1C(C2)N(C)CC3)C(C)C [3-(L-Val-L-Val)-dextrorphan] | 78.5 | 98.9 | 0.5
CC(=O)N[C@@H](C(=O)Oc1ccc2c(c1)[C@]13CCCC[C@@H]1C(C2)N(C)CC3)C(C)C [3-(N-Ac-D-Val)-dextrorphan] | 467.4 | 127.7 | 3.0
CC[C@H](C)[C@H](NC(C)=O)C(=O)Oc1ccc2c(c1)[C@]13CCCC[C@@H]1C(C2)N(C)CC3 [3-(N-Ac-L-Ile)-dextrorphan] | 27.4 | 13.9 | 2.2
CC(=O)N[C@@H](C)C(=O)Oc1ccc2c(c1)[C@]13CCCC[C@@H]1C(C2)N(C)CC3 [3-(N-Ac-L-Ala)-dextrorphan] | 29.6 | 18.2 | 0.7
CC[C@@H](C)[C@@H](NC(C)=O)C(=O)Oc1ccc2c(c1)[C@]13CCCC[C@@H]1C(C2)N(C)CC3 [3-(N-Ac-D-Ile)-dextrorphan] | 294.6 | 81.9 | 2.9
CC(=O)N[C@H](C(=O)Oc1ccc2c(c1)[C@]13CCCC[C@@H]1C(C2)N(C)CC3)C(C)C [3-(N-Ac-L-Val)-dextrorphan] | 31.2 | 12.6 | 2.8
CC(=O)N[C@H](Cc1ccccc1)C(=O)Oc1ccc2c(c1)[C@]13CCCC[C@@H]1[C@H](C2)N(C)CC3 [3-(N-Ac-D-Phe)-dextrorphan] | 19.1 | 4.7 | 5.0

Same assay, conditions: rat, in vivo

SMILES | steadiness of plasma concentration
CC(=O)N[C@@H](Cc1ccccc1)C(=O)Oc1ccc2c(c1)[C@]13CCCC[C@@H]1[C@H](C2)N(C)CC3 [3-(N-Ac-L-Phe)-dextrorphan] | much steadier
CC(=O)N[C@H](CCC(=O)O)C(=O)Oc1ccc2c(c1)[C@]13CCCC[C@@H]1C(C2)N(C)CC3 [3-(N-Ac-D-Glu)-dextrorphan] | steadier
CC(=O)N[C@H](C)C(=O)Oc1ccc2c(c1)[C@]13CCCC[C@@H]1C(C2)N(C)CC3 [3-(N-Ac-D-Ala)-dextrorphan] | steadier
CC(=O)N[C@@H](CCC(=O)O)C(=O)Oc1ccc2c(c1)[C@]13CCCC[C@@H]1C(C2)N(C)CC3 [3-(N-Ac-L-Glu)-dextrorphan] | steadier
CC(=O)N[C@@H](C)C(=O)Oc1ccc2c(c1)[C@]13CCCC[C@@H]1C(C2)N(C)CC3 [3-(N-Ac-L-Ala)-dextrorphan] | steadier
CC(=O)N[C@H](Cc1ccccc1)C(=O)Oc1ccc2c(c1)[C@]13CCCC[C@@H]1[C@H](C2)N(C)CC3 [3-(N-Ac-D-Phe)-dextrorphan] | much steadier

Same assay, conditions: rat, in vivo, po

SMILES | AUC compared to dextrorphan tartrate | Cmax compared to dextrorphan tartrate | dextrorphan AUC0-6h, times higher compared to dextrorphan tartrate | dextrorphan Cmax, times higher compared to dextrorphan tartrate | oral bioavailability compared to the other diastereomer of the same prodrug | oral dextrorphan bioavailability / exposure compared to dextrorphan tartrate
CC(=O)N[C@@H](Cc1ccccc1)C(=O)Oc1ccc2c(c1)[C@]13CCCC[C@@H]1[C@H](C2)N(C)CC3 [3-(N-Ac-L-Phe)-dextrorphan] | much smaller | much smaller |  |  |  | 
C[C@H](N)C(=O)N[C@@H](C)C(=O)Oc1ccc2c(c1)[C@]13CCCC[C@@H]1C(C2)N(C)CC3 [3-(L-Ala-L-Ala)-dextrorphan] | larger | larger | about 1.5 times | over 2 times |  | 
CC(=O)N[C@H](CCC(=O)O)C(=O)Oc1ccc2c(c1)[C@]13CCCC[C@@H]1C(C2)N(C)CC3 [3-(N-Ac-D-Glu)-dextrorphan] | much smaller | much smaller |  |  |  | 
CC(C)[C@H](NC(=O)[C@H](N)C(C)C)C(=O)Oc1ccc2c(c1)[C@]13CCCC[C@@H]1C(C2)N(C)CC3 [3-(D-Val-D-Val)-dextrorphan] | larger | larger |  |  | significantly increased | 
C[C@@H](N)C(=O)N[C@H](C)C(=O)Oc1ccc2c(c1)[C@]13CCCC[C@@H]1C(C2)N(C)CC3 [3-(D-Ala-D-Ala)-dextrorphan] | lower | smaller |  |  |  | lower
CC(=O)N[C@H](C)C(=O)Oc1ccc2c(c1)[C@]13CCCC[C@@H]1C(C2)N(C)CC3 [3-(N-Ac-D-Ala)-dextrorphan] | much smaller | much smaller |  |  |  | 
CC(=O)N[C@@H](CCC(=O)O)C(=O)Oc1ccc2c(c1)[C@]13CCCC[C@@H]1C(C2)N(C)CC3 [3-(N-Ac-L-Glu)-dextrorphan] | much smaller | much smaller |  |  |  | 
CC(C)[C@H](N)C(=O)N[C@H](C(=O)Oc1ccc2c(c1)[C@]13CCCC[C@@H]1C(C2)N(C)CC3)C(C)C [3-(L-Val-L-Val)-dextrorphan] | slightly lower |  |  |  |  | good oral bioavailability
CC(=O)N[C@@H](C(=O)Oc1ccc2c(c1)[C@]13CCCC[C@@H]1C(C2)N(C)CC3)C(C)C [3-(N-Ac-D-Val)-dextrorphan] | higher | higher | more than 5 times | about 1.8 times |  | 
CC(C)[C@@H](NC(=O)[C@@H](C)N)C(=O)Oc1ccc2c(c1)[C@]13CCCC[C@@H]1C(C2)N(C)CC3 [3-(D-Ala-D-Val)-dextrorphan] | larger | larger |  |  |  | superior
CC(=O)N[C@@H](C)C(=O)Oc1ccc2c(c1)[C@]13CCCC[C@@H]1C(C2)N(C)CC3 [3-(N-Ac-L-Ala)-dextrorphan] | much smaller | much smaller |  |  |  | decreasing bioavailability
CC[C@@H](C)[C@@H](NC(C)=O)C(=O)Oc1ccc2c(c1)[C@]13CCCC[C@@H]1C(C2)N(C)CC3 [3-(N-Ac-D-Ile)-dextrorphan] | much smaller | much smaller | > 8 times | over 6 times |  | 
CC(=O)N[C@H](C(=O)Oc1ccc2c(c1)[C@]13CCCC[C@@H]1C(C2)N(C)CC3)C(C)C [3-(N-Ac-L-Val)-dextrorphan] |  | lower |  |  |  | 
CC(=O)N[C@H](Cc1ccccc1)C(=O)Oc1ccc2c(c1)[C@]13CCCC[C@@H]1[C@H](C2)N(C)CC3 [3-(N-Ac-D-Phe)-dextrorphan] | much smaller | much smaller |  |  |  | 
